Results from US9937178B2, “Methods of identifying and using MDM2 inhibitors” (DUKE UNIVERSITY, priority 2011, dated 2018).

Tests used:
[1] = test system: rAU565-derived tumor; assay: rAU565 mammary fat pad xenograft; conditions: 100 mg/kg each drug, twice daily by oral gavage
Description: (§1) Six week-old female nude mice were purchased from NCI Frederic. Xenograft tumors were produced by injection into the mammary fat pad with cells (10×10^6). Tumor volumes were calculated every 3-4 days based on caliper measurements of the short (a) and long (b) tumor diameters (volume=a2b/2). […] Mice were dosed orally with vehicle alone, lapatinib (100 mg/kg), Nutlin-3 (100 mg/kg), or combination of both twice daily by gavage.

[2] = test system: rBT474 xenografts; assay: rBT474 mammary fat pad xenograft; conditions: 100 mg/kg each drug, twice daily by oral gavage
Description: (§2) Forty-eight hours after siRNA transfection, cells were treated with 1 μM lapatinib for 48 hours, and cells were harvested and subjected to Annexin V staining. The percentage of Annexin V-positive cells was analyzed by FACS. Results are expressed as a mean percentage±SEM and analyzed by t-test (*P<0.05). […] The oral administration of lapatinib (100 mg/kg, twice daily by oral gavage) began when the average tumor volume surpassed 300 mm^3. Results are expressed as a mean percentage±SEM. […] After 36 hours, cells were harvested and immunoblotted. […] BT474 and rBT474 cells were injected into the mammary fad pad of each mouse. When tumors developed to a size of 200 mm^3, the mice were randomly assigned to receive vehicle, lapatinib (100 mg/kg), Nutlin-3 (100 mg/kg), or Lapatinib+Nutlin-3 and treated twice daily by oral gavage. Results are expressed as a mean percentage±SEM. […] Percentage of apoptotic cell death was measured by FACS analysis using Annexin V. Results are expressed as a mean percentage±SEM of Annexin V-positive cells (*P<0.05 by t-test).
(§3) Six week-old female nude mice were purchased from NCI Frederic. Xenograft tumors were produced by injection into the mammary fat pad with cells (10×10^6). Tumor volumes were calculated every 3-4 days based on caliper measurements of the short (a) and long (b) tumor diameters (volume=a2b/2). […]

[3] = test system: BT474 xenografts; assay: BT474 mammary fat pad xenograft; conditions: 100 mg/kg each drug, twice daily by oral gavage
Description: as §2, §3

[4] = test system: AU565-derived tumor; assay: AU565 mammary fat pad xenograft; format: in vivo, mouse; conditions: 100 mg/kg each drug, twice daily by oral gavage
Description: as §1

[5] = test system: Mcl-1; assay: Immunoblot of Mcl-1 protein levels; format: cell-based; conditions: rSKBR3 cells, 1 μM lapatinib, 10 μM Nutlin-3a, 36 hours, z-VAD
Description: FIG. 3 is a set of photographs showing that Mcl-1 is stabilized in lapatinib-resistant cells. […] FIG. 3B is a set of immunoblots showing the levels of HER2 and phospho-HER2 in untreated cells and cells treated with lapatinib. Cells were treated with or without lapatinib (1 μM) for 24 hours in the presence of the caspase inhibitor z-VAD (50 μM). The cells were harvested and cell lysates were immunoblotted using antibodies against phospho-HER2 (Y877) and total HER2. FIG. 3C is an immunoblot for phospho-AKT (T308) and total AKT. BT474 and rBT474 cells were treated with 1 μM lapatinib in the presence of 50 μM z-VAD. At the indicated time points, the cells were harvested and immunoblotted. FIG. 3D is an immunoblot for phospho-Erl1/2(T202/Y204) and total Erk1/2. BT474 and rBT474 cells were treated with 1 μM lapatinib in the presence of 50 μM z-VAD. At the indicated time points, the cells were harvested and immunoblotted. FIG. 3E is an immunoblot for Mcl-1, Bim, and Actin. BT474 and rBT474 cells (left) or SKBR3 and rSKBR3 cells (right) were treated with 1 μM lapatinib. The cells were harvested at the indicated time points and immunoblotted. FIG. 3F is an autoradiograph showing the ^35[S] radioactivity in lysates containing ^35[S]-Mcl-1 at the indicated time points. ^35[S]-labeled Mcl-1 protein was incubated in cell-free lysates prepared from BT474 and rBT474 cells (top) or SKBR3 and rSKBR3 cells (bottom). FIG. 3G is an autograph showing the ^35[S]-labeled Mcl-1 to monitor Mcl-1 stability over time. The ^35[S]-labeled Mcl-1 was incubated in lysates prepared from rBT474 cells treated with or without 1 μM lapatinib. FIG. 3H is an immunoblot for HA. SKBR3 or rSKBR3 cells were co-transfected with FLAG-Mcl-1 and HA-Ubiquitin (Ub). […] Cells were harvested after treatment with 10 μM MG 132 for 4 hours. FLAG-Mcl-1 was retrieved by immunoprecipitation using anti-flag agarose, and Mcl-1 ubiquitylation was analyzed by immunoblotting for HA (*non-specific band, **IgG heavy chain).

[6] = test system: PP5; assay: Immunoblot of PP5 protein levels; format: cell-based; conditions: rSKBR3 cells, 1 μM lapatinib, 10 μM Nutlin-3a, 36 hours, z-VAD
Description: FIG. 7 is a set of photographs and graphs showing PP5 stability and post-cytochrome c protection in lapatinib-resistant cells. FIG. 7A is an immunoblot for caspase-9 (cleaved and non-cleaved) and cleaved caspase-3 (C9 and C3, respectively) showing rBT474 cells cultured in the absence or presence of 1 μM lapatinib for one week, as compared to BT474 cells which were maintained without lapatinib. Cytosolic lysates prepared from BT474 or rBT474 were incubated with 1 mM dATP and various amounts of cytochrome c (CC). FIG. 7B is a set of graphs showing Caspase 3 activity in the indicated cell lysates over time. Caspase-3 activity was assayed by measuring cleavage of DEVD-pNA following incubation of the cell lysates with 1 mM dATP and various concentrations of cytochrome c. FIG. 7C is an autoradiograph of ^32P and an immunoblot showing the percentage of the protein phosphorylated. In the presence of [γ-^32P]ATP, recombinant His-tagged HSP90β proteins (wild type and the indicated mutants) on nickel beads were incubated with the HSP90β-targeted kinase casein kinase 2. FIG. 7D is an autoradiograph and corresponding immunoblot showing BT474 or rBT474 cells after being cultured in the absence or presence of 1 μM lapatinib for 24 hours in the presence of z-VAD. Recombinant His-tagged HSP90β protein on nickel beads was incubated with the cell lysates in the presence of [γ-^32P]ATP. FIG. 7E is an immunoblot for phospho-Hsp90β (Ser226) and total HSP90β at various time points. […] FIG. 7F is a set of graphs showing FACS analysis for the phosphorylation status of Hsp90β (Ser255). BT474 or rBT474 cells cultured in the presence of 1 μM lapatinib for 24 hours were fixed with formaldehyde and incubated with phospho-Hsp90β (Ser255) antibody followed by an Alexa488-conjugated secondary antibody. FIG. 7G is an immunoblot for PP5 and actin at the indicated time points. BT474 and rBT474 (left) or AU565 and rAU565 cells (right) were treated with 1 μM lapatinib. FIG. 7H is an autoradiograph of immunoprecipitated FLAG-PP5 using an anti-FLAG agarose. […]

[7] = test system: Huwe1; assay: Immunoblot of Huwe1 protein levels and stability; format: cell-based; conditions: rSKBR3 cells, 1 μM lapatinib, 10 μM Nutlin-3a, 36 hours, z-VAD
Description: FIG. 13 is a set of immunoblots showing MDM2-mediated ubiquitylation and degradation of Huwe1 in lapatinib-resistant cells. […] Cells treated with 1 μM lapatinib were harvested at various time points and immunoblotted. […] FIG. 13B is an immunoblot for HA and actin. BT474 and rBT474 cells were transiently transfected with HA-tagged Huwe1 and subsequently treated with 50 μg/ml cycloheximide (CHX) and 1 μM lapatinib. FIG. 13C is an immunoblot for Huwe1 and MDM2. Immunoprecipitation was carried out using H1299 cell lysates and anti-Huwe1 antibody (or control IgG). FIG. 13D is an immunoblot for HA or MDM2 after immunoprecipitation with HA. BT474 cells were transfected with HA-tagged Huwe1 encoding the full-length protein, residues 1-2474, or residues 2473-4374. […] H1299 cells were transfected with empty vector, HA-Huwe1^W1202A, or HA-Huwe1 wild type. FIG. 13F is an immunoblot for Huwe1 and Actin. BT474 cells were transfected with increasing amounts of MDM2 and harvested after 48 hours. FIG. 13G is an immunoblot for Huwe1, MDM2, and actin. […] FIG. 13H is an immunoblot for Huwe1. Ubiquitylation of Huwe1 was reconstituted in vitro by incubating recombinant Huwe1 protein (Huwe1^1-2474) with E1, UbcH5 (E2), ubiquitin (Ub), and recombinant MDM2 protein in reaction buffer at 37° C. for 3 hours. […] Twenty-four hours later, the cells were replated and further transfected with HA-tagged Huwe1 (wild type). Forty-eight hours after siRNA transfection, the cells were treated with 1 μM lapatinib. After 24 hours of lapatinib treatment, 50 μg/ml cycloheximide (CHX) was added to the culture medium and cells were harvested at various time points for immunoblotting.

[8] = test system: CAS; assay: Immunoblot of CAS protein levels; format: cell-based; conditions: rSKBR3 cells, 1 μM lapatinib, 10 μM Nutlin-3a, 36 hours, z-VAD
Description: FIG. 11 is a set of photographs of immunoblots showing CAS degradation in lapatinib-resistant cells. FIG. 11A is an immunoblot for CAS and Actin. BT474 and rBT474 (left) or AU565 and rAU565 cells (right) cultured in the absence of lapatinib for one week were treated with 1 μM lapatinib and the cells were harvested at various time points. FIG. 11B is an immmunoblot for CAS and Actin. rBT474 cells were maintained in the presence of […] lapatinib and the cells were harvested at various time points following removal of lapatinib. FIG. 11C is an immunoblot for FLAG and actin. BT474 and rBT474 cells were transiently transfected with FLAG-tagged CAS and subsequently treated with 50 μg/ml cycloheximide (CHX) and 1 μM lapatinib and the cells were harvested at various time points. FIG. 11D is an immunoblot using HA to analyze ubiquitination of CAS. BT474 and rBT474 (left) or SKBR3 and rSKBR3 cells (right) were co-transfected with FLAG-CAS and HA-Ub. […] After treatment with 10 μM MG 132 for 8 hours, cells were harvested and FLAG-CAS was retrieved by immunoprecipitation. FIG. 11E is an immunoblot for FLAG-tagged proteins retrieved by immunoprecipitation and association with MDM2. H1299 cells were transfected with empty vector, FLAG-CAS^W127A, or FLAG-CAS wild type. FIG. 11F is an immunoblot for CAs after immunoprecipitation for FLAG. H1299 cells were transfected with empty vector, FLAG-CAS^W127A, or FLAG-CAS wild type. Cells were treated with 10 μM MG132 for 3 hours. […] SKBR3 cells were transfected with increasing amounts of MDM2. After 48 hours, cells were harvested and immunoblotted (*non-specific band). FIG. 11H is an immunoblot for CAS. […] FIG. 11I is an immunoblot for MDM2 or CAs after immunoprecipitation with FLAG. BT474 and rBT474 cells were transfected with FLAG-CAS. […] After treatment with 10 μM MG132 for 5 hours, FLAG-CAS was retrieved by immunoprecipitation and association of endogenous MDM2 was analyzed by immunoblotting.

[9] = test system: Mcl-1; assay: 35[S]-Mcl-1 degradation in cell-free lysates; format: cell-based; conditions: resistant cell lysates, 5 μM ubiquitin aldehyde
Description: FIG. 3 is a set of photographs showing that Mcl-1 is stabilized in lapatinib-resistant cells. […] FIG. 3B is a set of immunoblots showing the levels of HER2 and phospho-HER2 in untreated cells and cells treated with lapatinib. Cells were treated with or without lapatinib (1 μM) for 24 hours in the presence of the caspase inhibitor z-VAD (50 μM). The cells were harvested and cell lysates were immunoblotted using antibodies against phospho-HER2 (Y877) and total HER2. FIG. 3C is an immunoblot for phospho-AKT (T308) and total AKT. BT474 and rBT474 cells were treated with 1 μM lapatinib in the presence of 50 μM z-VAD. At the indicated time points, the cells were harvested and immunoblotted. FIG. 3D is an immunoblot for phospho-Erl1/2(T202/Y204) and total Erk1/2. BT474 and rBT474 cells were treated with 1 μM lapatinib in the presence of 50 μM z-VAD. At the indicated time points, the cells were harvested and immunoblotted. […] FIG. 3F is an autoradiograph showing the ^35[S] radioactivity in lysates containing ^35[S]-Mcl-1 at the indicated time points. ^35[S]-labeled Mcl-1 protein was incubated in cell-free lysates prepared from BT474 and rBT474 cells (top) or SKBR3 and rSKBR3 cells (bottom). […] FLAG-Mcl-1 was retrieved by immunoprecipitation using anti-flag agarose, and Mcl-1 ubiquitylation was analyzed by immunoblotting for HA (*non-specific band, **IgG heavy chain). […]

COc1ccc(C2=N[C@@H](c3ccc(Cl)cc3)[C@@H](c3ccc(Cl)cc3)N2C(=O)N2CCNC(=O)C2)c(OC(C)C)c1 [Nutlin-3]
rAU565-derived tumor growth [1]: moderate tumor inhibitory effects
rBT474-derived tumor growth [2]: Neither lapatinib nor Nutlin-3 inhibited
growth of BT474-derived tumors [3]: only modestly inhibited
AU565-derived tumor growth [4]: moderate tumor inhibitory effects

COc1ccc(C2=N[C@@H](c3ccc(Cl)cc3)[C@@H](c3ccc(Cl)cc3)N2C(=O)N2CCNC(=O)C2)c(OC(C)C)c1 [Nutlin-3a]
lapatinib-induced upregulation of Mcl-1 [5]: suppressed
lapatinib-induced upregulation of PP5 [6]: suppressed
lapatinib-induced degradation of Huwe1 [7]: prevented
CAS degradation [8]: significantly inhibited

ubiquitin aldehyde
degradation of 35[S]-Mcl-1 [9]: did not prevent the failure to degrade
